Measurements as given in PMC5522529, “Mechanisms of Paradoxical Activation of AMPK by the Kinase Inhibitors SU6656 and Sorafenib” (Cell Chemical Biology, 2017).

Legend:
[1] = biological target: T1, endogenous full-length α1 complexes (Homo sapiens, UniProt Q13131); assay: Activity of endogenous full-length α1 complexes in HEK293 cells; assay type: cell-based; conditions: 1 hr
T1 construct: endogenous in cells
From the text: (§1) We next expressed an FLAG-tagged α1 kinase domain (α1-KD, residues 1–312) by transient transfection in HEK293 cells, treated the cells with various AMPK activators, and then assayed both the expressed α1-KD (precipitated using anti-FLAG) and endogenous full-length α1 complexes (precipitated using anti-α1 antibodies recognizing an epitope outside the α1-KD). […] This was also observed with A23187, as expected since this ionophore increases intracellular Ca^2+ and activates the alternate upstream kinase CaMKK2.
(§2) The α1-KD was precipitated using anti-FLAG and endogenous AMPK complexes using anti-α1 antibody, and activity determined. Results (mean ± SD, n = 2) are expressed relative to activities in DMSO controls. (B) Western blots (n = 2) using the indicated antibodies; samples from experiment in (A). (C) DNAs encoding FLAG-tagged AMPK-α1 (WT or AT mutant) were expressed by transient transfection in HEK293 cells, the cells treated with increasing concentrations of SU6656 for 1 hr, AMPK complexes precipitated with anti-FLAG, and activity measured. Results (mean ± SD, n = 3) are expressed relative to the DMSO control. […] Results (mean ± SD, n = 3) are expressed relative to the DMSO control. **p < 0.01, ***p < 0.001, ****p < 0.0001, ^†††p < 0.001; ns, not significant.

[2] = biological target: T2, α1 kinase domain (α1-KD, residues 1–312) (Homo sapiens, UniProt Q13131); assay: Activity of FLAG-tagged α1 kinase domain expressed in HEK293 cells; assay type: cell-based; conditions: 1 hr
T2 construct: amplifying residues 1-312 with an N-terminal FLAG-tag; expressed in transfected cells; host or cells: HEK293 (transient transfection, pcDNA5 FRT)
From the text: as §1, §2
A plasmid encoding the AMPK-α2 kinase domain (α2-KD) was made by amplifying residues 1-310 with 5' BamH1 and 3' Xho1 sites, the resulting PCR product was cloned into pGEX6P2. Point mutations were generated using the Quikchange II site-directed mutagenesis kit (Stratagene) and confirmed by DNA sequencing.

[3] = biological target: T3, AMPK-α1 AT mutant (Homo sapiens, UniProt Q13131, A167T); assay: AMPK activity of FLAG-tagged AMPK-α1 AT mutant expressed in HEK293 cells; assay type: cell-based; conditions: AT mutant FLAG-α1, 1 hr
T3 construct: we expressed FLAG-tagged full-length AMPK-α1 either as the WT or the AT mutant; expressed in transfected cells; host or cells: HEK293 (transient transfection)
From the text: as §2
To confirm that it acted by binding at the catalytic site, we expressed FLAG-tagged full-length AMPK-α1 either as the WT or the AT mutant.

[4] = biological target: T4, human AMPK-α2 Y436F mutant (Homo sapiens, UniProt P54646, Y436F); assay: AMPK activity of FLAG-tagged Y436F AMPK-α2 expressed in HEK293 cells; assay type: cell-based; conditions: SU6656 100 μM, phenformin 10 mM, A23187 10 μM, 1 hr
T4 construct: expressed in transfected cells; host or cells: HEK293 (transient transfection)
Description: (§3) Top: AMPK activity (mean ± SEM, n = 4); bottom: western blots showing phosphorylation of Thr172 on AMPK, and of ERK1/2, in cells treated with DMSO (control), SU6656 (100 μM), or PP2 (100 nM) (n = 2). (B) As (A), but in SYF cells. (C) HeLa cells were transfected with DNAs encoding GFP alone, or GFP fused to WT, Y261F/Y365F (FF), or Y36F/Y261F/Y365F (FFF) mutants of LKB1; cells were treated with increasing concentrations of SU6656 for 1 hr and AMPK activity determined (mean ± SEM, n = 4). See also Figure S1. (D) HEK293 cells were transfected with DNAs encoding FLAG-tagged AMPK-α2 with or without a Y436F mutation. Cells were incubated with DMSO (control), 100 μM SU6656, 10 mM phenformin, or 10 μM A23187 for 1 hr; AMPK complexes were immunoprecipitated using anti-FLAG antibody and assayed. The top panels show kinase activities (mean ± SD, n = 3); the bottom panels show blots from the same experiment (n = 2). In all panels, asterisks indicate significant differences from DMSO controls; in (D), there were no significant differences between the WT and Y463F mutant. **p < 0.01, ****p < 0.0001.

[5] = biological target: T5, AMPK-α1 (WT) (Homo sapiens, UniProt Q13131); assay: AMPK activity of FLAG-tagged AMPK-α1 (WT) expressed in HEK293 cells; assay type: cell-based; conditions: 1 hr; for AMPK activity: WT FLAG-α1 (comparison with AT mutant)
T5 construct: we expressed FLAG-tagged full-length AMPK-α1 either as the WT or the AT mutant; expressed in transfected cells; host or cells: HEK293
From the text: (§4) (B) Western blotting of the same preparations as in (A). […] (D) Allosteric activation of WT and mutant α1β1γ1 complexes by MT 63-78, curve fitting as for (C). […] (E) Allosteric activation of WT and mutant α1β1γ1 complexes by AMP. Data were fitted to the equation for activation/inactivation by AMP ([Gowans et al., 2013]). […] (F) Activation of WT and AA mutant by various AMPK activators in HEK293 cells. […] FLAG-tagged complexes were isolated by immunoprecipitation and AMPK activity determined (mean ± SEM, n = 2).
(§5) We next expressed the FLAG-tagged WT or AA mutant of AMPK-α1 by transient transfection in HEK293 cells, treated with various agents, and measured AMPK activity in anti-FLAG immunoprecipitates. In Figure 4F, the results are expressed as absolute activities and are accompanied by blots showing Thr172 phosphorylation.
The α1-KD was precipitated using anti-FLAG and endogenous AMPK complexes using anti-α1 antibody, and activity determined. […] (B) Western blots (n = 2) using the indicated antibodies; samples from experiment in (A). (C) DNAs encoding FLAG-tagged AMPK-α1 (WT or AT mutant) were expressed by transient transfection in HEK293 cells, the cells treated with increasing concentrations of SU6656 for 1 hr, AMPK complexes precipitated with anti-FLAG, and activity measured.

[6] = biological target: human AMPK-α2 (WT) (Homo sapiens, UniProt P54646); assay: AMPK activity of FLAG-tagged WT AMPK-α2 expressed in HEK293 cells; assay type: cell-based; conditions: SU6656 100 μM, phenformin 10 mM, A23187 10 μM, 1 hr
Description: as §3

[7] = biological target: T6, AMPK-γ2 (WT) (Homo sapiens, UniProt Q9UGJ0); assay: AMPK activity in HEK293 cells expressing WT AMPK-γ2; assay type: cell-based; conditions: 1 hr
T6 construct: expressed in transfected cells; host or cells: Flp-In T-REx 293 (HEK293), tetracycline-inducible
From the text: (§6) The next possibility was that, like several other AMPK-activating drugs, SU6656 inhibits mitochondrial ATP synthesis, and thus activates AMPK indirectly by increasing cellular AMP/ADP. To test this, we used cell lines inducibly expressing either WT AMPK-γ2 or an AMP/ADP-resistant R531G (RG) mutant ([Hawley et al., 2010]). […] There were no effects of SU6656 on cellular oxygen uptake, unlike berberine. Subsequent addition of the uncoupler 2,4-dinitrophenol (DNP), which prevents the respiratory chain from being limited by ADP supply, increased oxygen uptake identically in control and SU6656-treated cells but had no effect following berberine, as expected for a complex I inhibitor (Figure S2).
(§7) (B) WT or RG cells were treated as in (A) and nucleotides extracted for analysis (mean ± SD, n = 3). […] (E) (See also Figure S2) Time courses of cellular oxygen uptake before and after addition of the indicated concentrations of sorafenib (SO, μM), SU6656 (100 μM) or phenformin (PHEN, 10 mM) (mean ± SEM, n = 4). (F) Effect of various concentrations of sorafenib or phenformin (10 mM) on activation (top, mean ± SEM, n = 3) or phosphorylation (bottom) of AMPK in cells expressing wild-type AMPK-γ2 (WT) or the R531G mutant AMPK-γ2 (RG). In all panels, asterisks show significant differences from DMSO controls (ns, not significant). In (B), daggers (†) show significant differences between results in WT and RG cells. *p < 0.05, **p < 0.01, ***p < 0.001, ****p < 0.0001, ^††††p < 0.0001.
(§8) HEK-293 cells stably expressing tetracycline-inducible FLAG-tagged human AMPK-γ2, or an R531G mutant, were generated by introducing the corresponding DNAs into Flp-In™ T-REx™ 293 cells ([Auciello et al., 2014]). Expression of the FLAG-tagged constructs was induced for 48 hr using tetracycline (1 μg.ml^-1) prior to addition of compounds under test. Transient transfections were carried out 36-48 hr prior to experiments, using Fugene 6 according to manufacturers’ instructions.

[8] = biological target: T7, AMPK-α1 AA mutant (Homo sapiens, UniProt Q13131, K40A/K42A); assay: AMPK activity of FLAG-tagged AMPK-α1 K40A/K42A (AA) mutant expressed in HEK293 cells; assay type: cell-based; conditions: AA mutant FLAG-α1; same concentrations, 1 hr
T7 construct: Plasmid encoding full-length human AMPK-α1; expressed in transfected cells; host or cells: HEK293
From the text: as §4, §5

[9] = biological target: T8, human α1β1γ1 complex with K40A mutation in α1 (Homo sapiens, UniProt P54619+Q13131+Q9Y478, K40A); assay: Allosteric activation of α1β1γ1 complex, K40A mutant; assay type: biochemical
T8 construct: made in house; host or cells: Escherichia coli
From the text: (§9) We next tested whether SU6656 activates AMPK by binding at the ADaM site. […] We therefore expressed WT or single (K40A, K42A) or double (K40A/K42A, AA) α1 mutants in the context of the human α1β1γ1 complex (Figure 4A).
as §4
(§10) Endogenous AMPK was immunoprecipitated using the specified antibodies (for total AMPK, an equal mixture of anti-α1 and –α2 antibodies) and assayed at 200 μM ATP ([Hardie et al., 2000], [Towler et al., 2008]) using the AMARA peptide ([Dale et al., 1995]) as substrate, except for assays of allosteric activation by AMP (Figure 5A) where the SAMS peptide was used as substrate with 2 mM ATP ([Gowans et al., 2013]). The AMPK-related kinases SIK1, SIK2, SIK3, SNARK, MARK2/3 and MARK4 were immunoprecipitated and assayed as previously described ([Lizcano et al., 2004]) in lysates of Hela cells stably expressing LKB1 ([Fogarty et al., 2010]). LKB1 was assayed using the LKBtide peptide as substrate ([Sakamoto et al., 2004]).
(§11) Data were fitted to the specified equations by non-linear regression using GraphPad Prism 6 for Mac OSX.

[10] = biological target: T9, AMPK-γ2 R531G (RG) mutant (Homo sapiens, UniProt Q9UGJ0, R531G); assay: AMPK activity in HEK293 cells expressing R531G AMPK-γ2; assay type: cell-based; conditions: 1 hr
T9 construct: expressed in transfected cells
From the text: as §6, §7, §8

[11] = biological target: T10, human α1β1γ1 complex (Homo sapiens, UniProt P54619+Q13131+Q9Y478); assay: Allosteric activation of bacterially expressed human α1β1γ1 complex, WT; assay type: biochemical
T10 construct: made in house; host or cells: Escherichia coli
From the text: as §9, §4, §10, §11

[12] = biological target: T11, human α1β1γ1 complex with K42A mutation in α1 (Homo sapiens, UniProt P54619+Q13131+Q9Y478, K42A); assay: Allosteric activation of α1β1γ1 complex, K42A mutant; assay type: biochemical
T11 construct: made in house; host or cells: Escherichia coli
From the text: as §9, §4, §10, §11

[13] = biological target: T12, human α1β1γ1 complex with K40A/K42A (AA) mutations in α1 (Homo sapiens, UniProt P54619+Q13131+Q9Y478, K40A/K42A); assay: Allosteric activation of α1β1γ1 complex, K40A/K42A (AA) mutant; assay type: biochemical
T12 construct: made in house; host or cells: Escherichia coli
From the text: as §9, §4, §10, §11

T5 sequence (Q13131 whole entry): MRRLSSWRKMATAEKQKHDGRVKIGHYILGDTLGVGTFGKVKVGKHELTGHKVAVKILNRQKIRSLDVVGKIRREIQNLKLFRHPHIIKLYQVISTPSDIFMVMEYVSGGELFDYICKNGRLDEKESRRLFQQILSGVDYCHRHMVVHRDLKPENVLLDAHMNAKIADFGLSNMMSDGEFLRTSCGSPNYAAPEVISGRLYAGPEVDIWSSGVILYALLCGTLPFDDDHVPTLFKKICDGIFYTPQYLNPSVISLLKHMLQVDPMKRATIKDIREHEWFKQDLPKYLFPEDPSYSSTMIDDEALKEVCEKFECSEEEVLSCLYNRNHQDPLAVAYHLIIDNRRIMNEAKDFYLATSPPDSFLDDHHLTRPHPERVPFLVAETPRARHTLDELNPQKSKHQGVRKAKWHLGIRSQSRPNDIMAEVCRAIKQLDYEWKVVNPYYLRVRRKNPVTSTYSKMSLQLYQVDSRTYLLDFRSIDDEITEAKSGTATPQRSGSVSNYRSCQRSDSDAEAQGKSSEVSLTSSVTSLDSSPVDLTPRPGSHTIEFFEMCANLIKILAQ
T5 sequence (P54619 whole entry partner): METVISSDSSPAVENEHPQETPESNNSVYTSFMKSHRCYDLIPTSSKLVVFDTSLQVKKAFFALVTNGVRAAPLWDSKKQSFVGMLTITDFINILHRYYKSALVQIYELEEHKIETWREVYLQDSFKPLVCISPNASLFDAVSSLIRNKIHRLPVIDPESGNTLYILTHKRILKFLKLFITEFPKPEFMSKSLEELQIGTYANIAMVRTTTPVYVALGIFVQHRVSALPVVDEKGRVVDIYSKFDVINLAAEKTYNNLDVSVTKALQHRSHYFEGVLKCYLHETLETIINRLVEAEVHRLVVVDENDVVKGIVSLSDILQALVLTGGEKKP
T12 sequence (Q13131 whole entry K40A/K42A): as the sequence (Q13131 whole entry) above, with K40A, K42A counted along it
T12 sequence (Q9Y478 whole entry): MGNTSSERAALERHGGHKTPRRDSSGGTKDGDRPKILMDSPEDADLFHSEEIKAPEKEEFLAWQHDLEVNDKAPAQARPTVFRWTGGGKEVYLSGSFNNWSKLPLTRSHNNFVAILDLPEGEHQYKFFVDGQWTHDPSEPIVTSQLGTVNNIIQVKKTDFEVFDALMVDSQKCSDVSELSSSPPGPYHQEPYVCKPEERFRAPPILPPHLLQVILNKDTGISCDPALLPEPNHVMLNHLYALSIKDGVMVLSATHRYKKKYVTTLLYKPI
T12 sequence (P54619 whole entry): as the sequence (P54619 whole entry partner) above
T8 sequence (Q13131 whole entry K40A): as the sequence (Q13131 whole entry) above, with K40A counted along it
T8 sequence (Q9Y478 whole entry): as the sequence (Q9Y478 whole entry) above
T8 sequence (P54619 whole entry): as the sequence (P54619 whole entry partner) above
T1 sequence (Q13131 whole entry): as the sequence (Q13131 whole entry) above
T1 sequence (P54619 whole entry partner): as the sequence (P54619 whole entry partner) above
T10 sequence (Q13131 whole entry): as the sequence (Q13131 whole entry) above
T10 sequence (Q9Y478 whole entry): as the sequence (Q9Y478 whole entry) above
T10 sequence (P54619 whole entry): as the sequence (P54619 whole entry partner) above
Chain of human AMPK-α2 (WT) (P54646 whole entry): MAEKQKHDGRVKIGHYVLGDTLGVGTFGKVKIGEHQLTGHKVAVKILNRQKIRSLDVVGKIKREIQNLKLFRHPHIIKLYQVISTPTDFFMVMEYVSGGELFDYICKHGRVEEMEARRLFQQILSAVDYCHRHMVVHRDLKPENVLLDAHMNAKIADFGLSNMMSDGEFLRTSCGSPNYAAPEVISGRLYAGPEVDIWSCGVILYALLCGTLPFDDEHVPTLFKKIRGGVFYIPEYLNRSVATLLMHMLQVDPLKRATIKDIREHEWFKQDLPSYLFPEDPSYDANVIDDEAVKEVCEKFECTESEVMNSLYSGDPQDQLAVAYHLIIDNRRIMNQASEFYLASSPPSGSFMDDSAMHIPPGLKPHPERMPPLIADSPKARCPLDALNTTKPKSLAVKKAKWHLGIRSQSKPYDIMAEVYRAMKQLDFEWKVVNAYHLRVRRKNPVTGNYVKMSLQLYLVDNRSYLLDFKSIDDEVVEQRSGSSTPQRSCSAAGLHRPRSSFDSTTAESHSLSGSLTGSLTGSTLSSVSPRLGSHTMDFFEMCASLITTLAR
Chain of human AMPK-α2 (WT) (P54619 whole entry partner): as the sequence (P54619 whole entry partner) above
T7 sequence (Q13131 whole entry K40A/K42A): as the sequence (Q13131 whole entry) above, with K40A, K42A counted along it
T7 sequence (P54619 whole entry partner): as the sequence (P54619 whole entry partner) above
T6 sequence (Q9UGJ0 whole entry): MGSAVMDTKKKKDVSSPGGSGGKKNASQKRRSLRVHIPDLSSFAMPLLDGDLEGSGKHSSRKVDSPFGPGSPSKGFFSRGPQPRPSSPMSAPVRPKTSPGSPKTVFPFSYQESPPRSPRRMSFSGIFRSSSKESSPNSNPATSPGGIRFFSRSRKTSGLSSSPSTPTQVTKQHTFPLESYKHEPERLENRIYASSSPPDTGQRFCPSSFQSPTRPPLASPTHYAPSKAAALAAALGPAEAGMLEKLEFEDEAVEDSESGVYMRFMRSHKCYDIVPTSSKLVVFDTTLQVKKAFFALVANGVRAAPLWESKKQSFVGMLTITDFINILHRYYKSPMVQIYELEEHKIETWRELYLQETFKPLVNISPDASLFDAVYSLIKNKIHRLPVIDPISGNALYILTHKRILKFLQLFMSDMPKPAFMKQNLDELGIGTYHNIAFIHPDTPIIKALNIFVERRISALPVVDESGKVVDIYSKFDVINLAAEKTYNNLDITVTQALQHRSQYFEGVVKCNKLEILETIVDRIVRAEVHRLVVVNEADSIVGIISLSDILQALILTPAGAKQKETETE
T2 sequence (Q13131 1-312): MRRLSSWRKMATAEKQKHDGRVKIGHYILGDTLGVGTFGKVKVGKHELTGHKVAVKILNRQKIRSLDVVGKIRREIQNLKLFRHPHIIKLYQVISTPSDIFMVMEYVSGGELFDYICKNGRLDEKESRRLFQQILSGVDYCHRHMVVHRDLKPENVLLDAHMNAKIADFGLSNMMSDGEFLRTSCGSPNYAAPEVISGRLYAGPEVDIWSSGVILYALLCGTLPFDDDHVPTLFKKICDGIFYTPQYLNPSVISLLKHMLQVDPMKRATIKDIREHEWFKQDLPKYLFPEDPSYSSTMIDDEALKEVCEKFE
T4 sequence (P54646 whole entry Y436F): as the sequence (P54646 whole entry) above, with Y436F counted along it
T4 sequence (P54619 whole entry partner): as the sequence (P54619 whole entry partner) above
T9 sequence (Q9UGJ0 whole entry R531G): as the sequence (Q9UGJ0 whole entry) above, with R531G counted along it
T3 sequence (Q13131 whole entry A167T): as the sequence (Q13131 whole entry) above, with A167T counted along it
T3 sequence (P54619 whole entry partner): as the sequence (P54619 whole entry partner) above
T11 sequence (Q13131 whole entry K42A): as the sequence (Q13131 whole entry) above, with K42A counted along it
T11 sequence (Q9Y478 whole entry): as the sequence (Q9Y478 whole entry) above
T11 sequence (P54619 whole entry): as the sequence (P54619 whole entry partner) above

| SMILES | kinase activity / Thr172 phosphorylation [1] | kinase activity / Thr172 phosphorylation [2] | AMPK activity [3] | AMPK activation response with Y436F mutation [4] | AMPK activity [5] | AMPK activity in anti-FLAG immunoprecipitates [6] | AMPK activity [7] | effect of AA mutation on AMPK activation [8] | Activation (maximal allosteric activation) [9] [fold] | EC50 [9] [µM] | AMPK activity [10] | Activation (maximal allosteric activation) ([11]; not phosphorylated on Thr172, relative to basal activity) [fold] | EC50 ([11]; read-out: EC50 (concentration causing half-maximal effect)) [µM] | AMPK activity and Thr172 phosphorylation ([5]; WT FLAG-α1, A769662 300 μM, berberine 300 μM, phenformin 10 mM, troglitazone 100 μM, oligomycin 1 μM, SU6656 100 μM) | Activation (maximal allosteric activation) [12] [fold] | Activation (maximal allosteric activation) [13] [fold] | EC50 [13] [µM] |
| --- | --- | --- | --- | --- | --- | --- | --- | --- | --- | --- | --- | --- | --- | --- | --- | --- | --- |
| CNc1ccc2oc(C[C@H]3O[C@@]4(CC[C@H]3C)O[C@H]([C@H](C)C(=O)c3ccc[nH]3)[C@H](C)C[C@H]4C)nc2c1C(=O)O [A23187] | also observed | also observed | activated equally well | unaffected by the Y436F mutation | activated equally well | all activated AMPK | – | – | – | – | – | – | – | – | – | – | – |
| N#Cc1c(O)c2c(-c3ccc(-c4ccccc4O)cc3)csc2[nH]c1=O [A769662] | not statistically significant | – | – | – | did not cause a significant activation | – | activated AMPK in both | completely prevented | 18 ± 0.7 | 4 ± 0.7 | activated AMPK in both | 38 ± 1 | 1 ± 0.1 | activated AMPK and caused Thr172 phosphorylation | 21 ± 0.6 | 1.0 ± 0.03 | 0.001 ± 0.002 |
